How the values were obtained:
5-Lipoxygenase enzyme = target: T1, 5-Lipoxygenase enzyme (Rattus norvegicus, UniProt P12527); assay: RBL-1 5-lipoxygenase screen; format: biochemical; conditions: 10,000g supernatant from RBL-1 cells; for inhibition at 50 µM: 50µM compound (cells marked *, footnote: inhibition at 50µM); for inhibition at 20 µM: 20µM compound, decrease in formation of 5-HETE and 5,12-diHETE relative to control
T1 construct: 5-Lipoxygenase enzyme was prepared as a 10,000g supernatant from RBL-1 cells; endogenous in cells; host or cells: RBL-1 cells (10,000g supernatant)
T1 sequence (P12527 1-673): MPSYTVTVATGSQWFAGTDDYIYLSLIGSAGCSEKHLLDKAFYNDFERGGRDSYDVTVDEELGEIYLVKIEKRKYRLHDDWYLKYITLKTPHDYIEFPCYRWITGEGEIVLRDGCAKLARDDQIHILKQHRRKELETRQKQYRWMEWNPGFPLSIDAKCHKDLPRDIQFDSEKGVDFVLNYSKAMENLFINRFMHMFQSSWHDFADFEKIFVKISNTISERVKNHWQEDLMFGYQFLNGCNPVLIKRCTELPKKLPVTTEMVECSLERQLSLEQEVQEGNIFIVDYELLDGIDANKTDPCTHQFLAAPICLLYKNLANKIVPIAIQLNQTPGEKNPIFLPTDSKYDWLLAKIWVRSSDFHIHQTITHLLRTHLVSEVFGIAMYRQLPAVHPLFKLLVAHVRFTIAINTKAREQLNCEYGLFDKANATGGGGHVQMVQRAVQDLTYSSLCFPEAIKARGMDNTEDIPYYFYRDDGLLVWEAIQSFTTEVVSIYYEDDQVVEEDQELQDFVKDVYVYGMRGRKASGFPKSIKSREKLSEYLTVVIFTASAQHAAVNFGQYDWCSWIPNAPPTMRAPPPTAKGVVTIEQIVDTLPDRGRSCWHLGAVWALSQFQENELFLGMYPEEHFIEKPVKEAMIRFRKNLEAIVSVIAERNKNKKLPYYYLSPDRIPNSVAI
Protocol: 1) RBL-1 5-LIPOXYGENASE SCREEN
5-Lipoxygenase enzyme was prepared as a 10,000g supernatant from RBL-1 cells by the method of Jakschik (Jakschik, B.A., F.F. Sun, L.M.Lee, and M.M. Steinhoff, 1980, Biochem. Biophys. Res.Comm. 95, 103). The 10,000g supernatant was diluted with homogenization buffer to the equivalent of 1.5 - 2.5 x 10^7 cells. ml.-l and made 2mM with respect to CaCl2. Aliquots of 0.5ml were then dispensed into tubes, and incubated at 29 °C with 5pl ethanol or compound in ethanol at the desired concentration for 2min. Then [1-^14C] arachidonic acid was added in buffer to give a final concentration of 6.3µM and 0.2pCi per incubation, and the reaction continued at 29 °C for 2min. The reaction was terminated by adding lml of acetone and cooling on ice, 0.5ml of ice-cold saline and 100pl of 2M formic acid were added, and the mixture was extracted with 2 x 2ml of chloroform. The extract was stored under N2 at -20 °C until analysis by chromatography. Activity was measured as the percentage of total radioactivity found in 5-HETE and 5,12-diHETE, and inhibition calculated as the decrease in formation of the sum of these two species in compound-treated incubates relative to control incubations.

cyclo-oxygenase = target: T2, cyclo-oxygenase (Bos taurus, UniProt O62664); assay: Cyclo-oxygenase screen; format: biochemical; conditions: 50µM compound; bovine seminal vesicle microsomes; decrease in prostaglandin formation
T2 construct: comprising 0.96mg lyophilised bovine seminal vesicle microsomes; from tissue; host or cells: bovine seminal vesicle microsomes (lyophilised)
T2 sequence (O62664 25-600): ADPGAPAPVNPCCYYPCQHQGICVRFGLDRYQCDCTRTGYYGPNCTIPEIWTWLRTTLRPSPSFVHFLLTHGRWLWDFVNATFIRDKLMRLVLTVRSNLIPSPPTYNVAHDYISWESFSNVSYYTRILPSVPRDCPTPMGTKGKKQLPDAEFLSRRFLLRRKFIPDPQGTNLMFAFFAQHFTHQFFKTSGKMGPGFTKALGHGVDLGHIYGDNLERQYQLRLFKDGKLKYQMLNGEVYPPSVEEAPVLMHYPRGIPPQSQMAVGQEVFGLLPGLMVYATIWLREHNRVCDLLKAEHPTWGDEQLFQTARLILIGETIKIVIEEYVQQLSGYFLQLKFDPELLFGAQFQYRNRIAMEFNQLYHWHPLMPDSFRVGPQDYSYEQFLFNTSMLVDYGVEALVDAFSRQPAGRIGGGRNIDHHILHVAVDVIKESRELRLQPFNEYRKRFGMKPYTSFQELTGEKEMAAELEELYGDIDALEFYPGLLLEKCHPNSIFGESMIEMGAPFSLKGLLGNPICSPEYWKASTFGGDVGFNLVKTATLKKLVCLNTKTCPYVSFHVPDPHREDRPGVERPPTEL
Protocol: 2) Cyclo-oxygenase Screen
Compounds were preincubated with the incubation constitutents for 5 min at 37 °C before the reaction was started by the addition of the arachidonic acid. The reaction was continued at 37 °C for 2 min, then stopped by placing the incubations on ice and the addition of 1.2ml 0.2M citric acid. Unmetabolised substrate and prostaglandin products were extracted in ethyl acetate (2 x 4ml), the combined extracts washed with 0.8ml water, and separated by thin-layer chromatography (Kieselgel GF254 plates in ethyl acetate:acetone:glacial acetic acid, 90:10:1, v/v). Recovery was 65-80%. The regions on the thin-layer chromatography plate that chromatographed with authentic arachidonic acid or prostaglandins E2 and F2a (Rf's 0.70, 0.28 and 0.16 respectively) were scraped and the radioactivity in each determined by liquid scintillation counting with a correction for quenching being made by the external standard-channels ratio method. Inhibition of cyclo-oxygenase activity was calculated from the decrease in prostaglandin formation. Each compound concentration was tested in triplicate and the 50% inhibitory concentration, if determined, was calculated by linear regression from the inhibitory data at, at least three different compound concentrations.

inhibition at 50 µM (5-Lipoxygenase enzyme)	inhibition at 50 µM (cyclo-oxygenase)	inhibition at 20 µM (5-Lipoxygenase enzyme)	SMILES
60%	70%		CCCCCCCCCCCC#Cc1ccccc1C=C(C(=O)O)C(=O)OCC [Example 24]
55%	59%		CCCCCCCCCCCC#Cc1ccccc1C=C(C(=O)O)C(=O)O [Example 25]
	59%		CCCCCCCCCCCC#Cc1ccc(C=C(C(=O)O)C(=O)O)cc1 [Example 27]
	76%	63%	CCCCCCCCCCCC#Cc1ccccc1CC(C(=O)O)C(=O)O [Example 28]
		67%	CCCCCCCCCCC/C=C\c1ccccc1C=C(C(=O)O)C(=O)O [Example 29]
		15%	CCCCCCC#Cc1ccc(C=C(C(=O)O)C(=O)OC)cc1 [Example 49]
		16%	CCCCCCC#Cc1ccc(C=C(C(=O)O)C(=O)O)cc1 [Example 50]
		25%	CCCCCCCCCCCC#Cc1cccc(C=C(C(=O)O)C(=O)O)c1 [Example 51]
		51%	CCCCCCCCCCCC#Cc1cccc(CC(C(=O)O)C(=O)O)c1 [Example 52]
		63%	CCCCCCC#Cc1ccccc1OCCCC(C(=O)O)C(=O)OCC (centres unmarked) [Example 55]
52%			CCCCCCC#Cc1cccc(OCCCC(C(=O)O)C(=O)OCC)c1 (centres unmarked) [Example 56]
		54%	CCCCCCC#Cc1ccccc1OCCCC(C(=O)O)C(=O)O [Example 57]
45%	38%		CCCCCCC#Cc1cccc(OCCCC(C(=O)O)C(=O)O)c1 [Example 58]
		82%	CCCCCCCCCCC/C=C\c1cccc(C=C(C(=O)O)C(=O)O)c1 [Example 63]
		49%	CCCCCC/C=C\c1ccc(C=C(C(=O)O)C(=O)O)cc1 [Example 64]
		84%	CCCCCCCCCCC/C=C\c1cccc(CC(C(=O)O)C(=O)O)c1 [Example 66]
	40%	62.5%	CCCCCC/C=C\c1cccc(OCCCC(C(=O)O)C(=O)OCC)c1 (centres unmarked) [Example 68]
		44%	CCCCCC/C=C\c1cccc(OCCCC(C(=O)O)C(=O)O)c1 [Example 69]

Source: EP0195097A1, “Arachidonic acid analogues, processes for their preparation and their use in medicine” (BEECHAM GROUP PLC, priority 1985, dated 1986)
